In one experiment the target is T1, Adenosine receptor A1 (Rattus norvegicus, UniProt P25099).
T1 sequence (P25099 whole entry): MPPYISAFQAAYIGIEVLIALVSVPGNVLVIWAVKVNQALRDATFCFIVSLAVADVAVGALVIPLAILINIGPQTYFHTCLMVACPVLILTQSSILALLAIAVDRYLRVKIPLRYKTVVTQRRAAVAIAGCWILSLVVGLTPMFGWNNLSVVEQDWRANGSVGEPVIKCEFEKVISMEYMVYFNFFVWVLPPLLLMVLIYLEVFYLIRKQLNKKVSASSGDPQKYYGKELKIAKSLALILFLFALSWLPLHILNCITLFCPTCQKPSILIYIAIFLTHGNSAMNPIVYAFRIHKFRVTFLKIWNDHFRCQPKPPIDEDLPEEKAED

The target of another experiment is Adenosine receptor A2a (Rattus norvegicus, UniProt P30543).
Sequence of Adenosine receptor A2a (P30543 whole entry): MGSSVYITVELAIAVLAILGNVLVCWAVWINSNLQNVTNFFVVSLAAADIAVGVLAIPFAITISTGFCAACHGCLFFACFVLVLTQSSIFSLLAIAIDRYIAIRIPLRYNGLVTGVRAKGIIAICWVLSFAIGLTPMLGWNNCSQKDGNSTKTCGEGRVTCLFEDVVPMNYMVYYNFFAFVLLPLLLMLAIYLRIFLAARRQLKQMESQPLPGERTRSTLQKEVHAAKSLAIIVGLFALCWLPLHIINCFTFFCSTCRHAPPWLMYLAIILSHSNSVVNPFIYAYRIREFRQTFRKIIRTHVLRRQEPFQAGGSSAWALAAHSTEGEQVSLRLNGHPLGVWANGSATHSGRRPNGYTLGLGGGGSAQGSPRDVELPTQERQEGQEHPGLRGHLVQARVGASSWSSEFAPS

Bounds are passed on as bounds.

The term Ki denotes a dissociation constant, usually derived from enzyme kinetics or from competition with a known ligand. High values mean weaker binding, low ones tighter binding.

Regarding `CO[C@@H]1[C@H](O)[C@@H](CO)O[C@H]1n1cnc2c(N)ncnc21`, the Ki on Adenosine receptor A1 and on Adenosine receptor A2a was more than 10 µM in each case.
For the molecule `CCCCCC[C@H]([C@H](C)O)n1cnc2c(N)ncnc21` (relative stereo) [3-(6-amino-9H-purin-9-yl)nonan-2-ol], the results for the inhibition constant (Ki) at Adenosine receptor A1 and on Adenosine receptor A2a were 0.455 µM and more than 10 µM, respectively.
Taken in the same sequence, the figures for `Cn1c(=O)[nH]c2c(ncn2C)c1=O` [1,9-Dimethylxanthine] were more than 10 µM and more than 10 µM.
Taken in the same sequence, the figures for `Nc1ncnc2c1ncn2[C@H]1C[C@H](O)[C@@H](CO)O1` [2'deoxyadenosine] were more than 10 µM and more than 10 µM.
In turn, `NCC1OC(n2cnc3c(N)ncnc32)C(O)C1O` (stereo not given) [2-Aminomethyl-5-(6-amino-purin-9-yl)-tetrahydro-furan-3,4-diol] displayed an inhibition constant Ki at Adenosine receptor A2a of 38.5 µM.
For `Nc1nc(S)c2ncn(C3OC(CO)C(O)C3O)c2n1` (stereo not given) [2-azanyl-9-[5-(hydroxymethyl)-3,4-bis(oxidanyl)oxolan-2-yl]-3H-purine-6-thione], the Ki on Adenosine receptor A1 and at Adenosine receptor A2a was more than 10 µM throughout.
Regarding `Nc1ncnc2c1ncn2[C@@H]1O[C@H](CO)C[C@H]1O` [3'-Deoxyadenosine (cordycepin)], the Ki at Adenosine receptor A1 and at Adenosine receptor A2a was more than 10 µM throughout.
With `Cn1cnc2c(=O)[nH]c(=O)n(C)c21` [3,9-dimethyl-3,9-dihydro-1h-purine-2,6-dione], the inhibition constant (Ki) on Adenosine receptor A1 and on Adenosine receptor A2a was more than 10 µM each time.
For `Nc1ccn([C@@H]2O[C@H](COP(=O)(O)OP(=O)(O)O)[C@@H](O)[C@H]2O)c(=O)n1` [5'-CDP], the Ki at Adenosine receptor A1 and on Adenosine receptor A2a was more than 10 µM throughout.
On to `CCNC(=O)[C@H]1O[C@@H](n2cnc3c(=O)[nH]cnc32)[C@H](O)[C@@H]1O` [5'-N-ethylcarboxamidoinosine], for which the Ki on Adenosine receptor A1 and on Adenosine receptor A2a was more than 10 µM each time.
On to `Cn1cnc2[nH]c(=O)[nH]c(=O)c21` [7-Methylxanthine], for which the Ki at Adenosine receptor A1 and on Adenosine receptor A2a was more than 10 µM throughout.
Take `Nc1ncnc2c1nc(Br)n2C1OC(CO)C(O)C1O` (stereo not given) [8-Bromoadenosine]: the inhibitory constant (Ki) on Adenosine receptor A1 is more than 10 µM; at Adenosine receptor A2a, 22.7 µM.
Taken in the same sequence, the figures for `C[S+](CC[C@H](N)C(=O)[O-])C[C@H]1O[C@@H](n2cnc3c(N)ncnc32)[C@H](O)[C@@H]1O` (stereo partly drawn) [(2S)-2-amino-4-({[(2S,3S,4R,5R)-5-(6-amino-9H-purin-9-yl)-3,4-dihydroxyoxolan-2-yl]methyl}(methyl)sulfanylium)butanoate] were 0.675 µM and 2.78 µM.
Consider `O=c1[nH]c(=O)c2ncn(C3OC(COP(=O)(O)O)C(O)C3O)c2[nH]1` (stereo not given) [CAS_146-80-5], for which the inhibition constant Ki at Adenosine receptor A1 and on Adenosine receptor A2a was more than 10 µM in each case.
In the case of `O=c1[nH]c(=O)c2[nH]c(Cl)nc2[nH]1` [CAS_13548-68-0], the inhibition constant Ki at Adenosine receptor A1 and at Adenosine receptor A2a was more than 10 µM in each case.
At Adenosine receptor A1, `OCC1OC(n2cnc3c(S)ncnc32)C(O)C1O` (stereo not given) [NSC_1867] came in with a Ki of more than 10 µM.
`Nc1nc2c(ncn2[C@H]2O[C@@H](COP(=O)(O)O)[C@H](O)[C@@H]2O)c(=O)[nH]1` [NSC_6804]: the Ki was 27.8 µM at Adenosine receptor A1 and 85.1 µM at Adenosine receptor A2a.
As to `Nc1ncnc2c1N([C@H]1O[C@@H](CO)[C@H](O)[C@@H]1O)CN2` [T-7-Riboside], on Adenosine receptor A1, the inhibition constant (Ki) was 27 µM.
As to `Nc1ncnc2c1ncn2[C@@H]1O[C@H](COP(=O)(O)O)[C@@H](O)[C@H]1O` [adenosine 5 -monophosphate], on Adenosine receptor A2a, the inhibition constant Ki is more than 10 µM.
Turning to `Nc1ncnc2c1ncn2[C@@]1(CO)O[C@H](CO)[C@@H](O)[C@H]1O` [beta-D-Psicofuranosyladenine], the Ki at Adenosine receptor A1 and at Adenosine receptor A2a was more than 10 µM each time.
Turning to `O=c1ccn(C2OC(COP(=O)(O)OP(=O)(O)O)C(O)C2O)c(=O)[nH]1` (stereo not given) [hydrogen ({[5-(2,4-dioxo-1,2,3,4-tetrahydropyrimidin-1-yl)-3,4-dihydroxyoxolan-2-yl]methylphosphonato}oxy)phosphonate], the inhibition constant Ki at Adenosine receptor A1 and at Adenosine receptor A2a was more than 10 µM in each case.
Take `Cc1cn([C@H]2C[C@H](O)[C@@H](CO)O2)c(=O)[nH]c1=O` [thymidine]: the Ki at Adenosine receptor A1 and on Adenosine receptor A2a was more than 10 µM throughout.

For the origin of these results see BindingDB's records for PubMed 8022403 (National Institute of Diabetes, Digestive and Kidney …, 1994).
